The supplement of paper PMC10307832

Columns and labels:
Assay in all cases: relative viability (nuclei count vs DMSO), 5 days (fraction); higher = more cells survive
Tozasertib + Alpelisib = compound: Cc1cc(Nc2cc(N3CCN(C)CC3)nc(Sc3ccc(NC(=O)C4CC4)cc3)n2)n[nH]1 [Tozasertib] + Cc1nc(NC(=O)N2CCC[C@H]2C(N)=O)sc1-c1ccnc(C(C)(C)C(F)(F)F)c1 [Alpelisib] (partner 2 µM)
Procedure, shortened: (§1)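 Lung cancer cell lines were pin-tool dosed in 1536-well plates on the day after seeding, with either a lone drug or a fixed anchor-drug dose plus five library-drug doses (not always all listed) in √10 steps. Nuclei were counted on 4× images after 5 days. Relative viability is the ratio of treated-well to vehicle-well nuclei counts, with each value a median of duplicate plates.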

Tozasertib + Decitabine = compound: Cc1cc(Nc2cc(N3CCN(C)CC3)nc(Sc3ccc(NC(=O)C4CC4)cc3)n2)n[nH]1 [Tozasertib] + Nc1ncn([C@H]2C[C@H](O)[C@@H](CO)O2)c(=O)n1 [Decitabine] (partner 2 µM)
Procedure, shortened: as §1

Tozasertib + Trametinib = compound: Cc1cc(Nc2cc(N3CCN(C)CC3)nc(Sc3ccc(NC(=O)C4CC4)cc3)n2)n[nH]1 [Tozasertib] + CC(=O)Nc1cccc(-n2c(=O)n(C3CC3)c(=O)c3c(Nc4ccc(I)cc4F)n(C)c(=O)c(C)c32)c1 [Trametinib] (partner 0.02 µM)
Procedure, shortened: as §1

Tozasertib + Foretinib = compound: Cc1cc(Nc2cc(N3CCN(C)CC3)nc(Sc3ccc(NC(=O)C4CC4)cc3)n2)n[nH]1 [Tozasertib] + COc1cc2c(Oc3ccc(NC(=O)C4(C(=O)Nc5ccc(F)cc5)CC4)cc3F)ccnc2cc1OCCCN1CCOCC1 [Foretinib] (partner 0.25 µM)
Procedure, shortened: as §1

Tozasertib + Linsitinib = compound: Cc1cc(Nc2cc(N3CCN(C)CC3)nc(Sc3ccc(NC(=O)C4CC4)cc3)n2)n[nH]1 [Tozasertib] + C[C@]1(O)C[C@@H](c2nc(-c3ccc4ccc(-c5ccccc5)nc4c3)c3c(N)nccn32)C1 [Linsitinib] (partner 1 µM)
Procedure, shortened: as §1

Cell Line	relative viability (Tozasertib + Alpelisib; first compound 0.004 µM)	relative viability (Tozasertib + Alpelisib; first compound 0.01265 µM)	relative viability (Tozasertib + Alpelisib; first compound 0.04 µM)	relative viability (Tozasertib + Alpelisib; first compound 0.1265 µM)	relative viability (Tozasertib + Decitabine; first compound 0.004 µM)	relative viability (Tozasertib + Decitabine; first compound 0.01265 µM)	relative viability (Tozasertib + Decitabine; first compound 0.04 µM)	relative viability (Tozasertib + Decitabine; first compound 0.1265 µM)	relative viability (Tozasertib + Trametinib; first compound 0.004 µM)	relative viability (Tozasertib + Trametinib; first compound 0.04 µM)	relative viability (Tozasertib + Trametinib; first compound 0.1265 µM)	relative viability (Tozasertib + Foretinib; first compound 0.01265 µM)	relative viability (Tozasertib + Foretinib; first compound 0.04 µM)	relative viability (Tozasertib + Foretinib; first compound 0.1265 µM)	relative viability (Tozasertib + Linsitinib; first compound 0.004 µM)	relative viability (Tozasertib + Linsitinib; first compound 0.01265 µM)	relative viability (Tozasertib + Linsitinib; first compound 0.04 µM)	relative viability (Tozasertib + Linsitinib; first compound 0.1265 µM)	relative viability (Tozasertib + Trametinib; first compound 0.01265 µM)	relative viability (Tozasertib + Foretinib; first compound 0.004 µM)
NCI-H322M	0.732	0.749	0.904	0.848	0.656	0.661	0.675	0.618	0.498	0.573	0.458	0.941	1.02	0.47	0.893	0.998	0.923	0.848	–	–
NCI-H358	1.08	0.863	0.83	0.182	0.246	0.196	0.228	0.0965	0.137	0.132	0.0814	0.617	0.545	0.106	0.787	0.69	0.651	0.194	0.0985	0.736
NCI-H441	0.69	0.69	0.758	0.541	0.226	0.222	0.25	0.261	0.575	0.428	0.318	0.914	0.895	0.887	0.496	0.551	0.616	0.353	0.393	1.05
NCI-H460	0.544	0.435	0.449	0.293	0.456	0.53	0.493	0.284	0.132	0.113	0.0704	0.981	1.01	0.504	0.738	0.751	0.787	0.149	0.129	1.03
NCI-H520	0.945	0.844	0.889	0.864	0.533	0.449	0.467	0.296	0.673	0.765	0.243	0.602	0.923	0.608	1.07	0.952	0.978	0.472	0.645	0.872
NCI-H596	–	0.451	0.519	0.439	0.984	0.948	0.853	0.888	0.992	0.826	0.622	0.916	0.864	0.766	1.08	0.979	1.15	1.03	0.877	0.827
NCI-H647	1.43	0.915	1.06	0.371	0.43	0.402	0.322	0.25	0.459	0.524	0.32	1.28	1.34	–	0.854	1.33	1.22	–	0.374	1.24
NCI-H650	1.23	1.06	–	–	0.38	0.288	0.334	0.284	1.06	0.894	0.823	–	1.02	0.879	0.967	0.771	0.754	0.513	0.918	1.14
NCI-H661	0.568	0.735	0.776	0.496	0.65	0.599	0.569	0.304	0.564	0.618	0.336	0.982	1.03	0.357	0.61	0.564	0.497	0.402	0.579	1.09
NCI-H727	0.739	0.554	0.639	0.482	0.942	–	0.803	0.645	0.358	0.38	0.37	0.984	0.958	0.689	0.258	0.287	0.368	0.236	0.395	1.02
NCI-H838	1.15	0.942	1.12	1.03	0.464	0.458	0.453	0.253	0.528	0.657	0.246	0.922	1.05	0.921	1.07	0.972	1.15	0.861	0.453	0.977
NCI-H1355	0.851	0.804	0.96	0.78	0.357	0.35	0.33	0.357	0.43	0.465	0.402	0.926	0.901	0.853	0.751	0.816	0.912	0.722	0.436	0.942
NCI-H1395	1.15	1.04	0.914	0.753	0.724	0.674	0.673	0.524	1.1	1.07	0.638	0.864	0.972	0.838	1.57	0.974	1.16	0.75	0.972	0.951
NCI-H1437	–	0.866	1.01	0.92	0.614	0.49	0.584	0.359	0.562	0.54	0.294	1.25	1.2	1.19	1.09	0.971	1	0.779	0.422	1.22
NCI-H1651	0.922	1.01	0.886	1.03	0.608	0.623	0.611	0.437	0.884	0.907	–	0.773	0.856	0.87	1.19	0.899	0.972	0.923	0.785	0.694
NCI-H1666	1.06	0.976	0.973	0.632	0.746	0.68	0.678	0.521	0.79	0.863	0.727	0.879	0.97	0.762	0.835	0.854	0.861	0.64	0.86	0.978
